Source: paper PMC2365101, “Anti-Inflammatory Activity of (Polyphenolic)-Sulfonates and Their Sodium Salts in Rodents” (Metal-Based Drugs, 1998)

Columns and labels:
[1] = test system: CF1 male mice, carrageenan induced edema; assay: Anti-inflammatory screen in mice (carrageenan induced foot edema); assay type: in vivo; conditions: for reduction of edema: 16 mg/kg X 2
Excerpt: Few reports in the literature indicate interaction at these receptor sites other than by peptides or antibodies. […] Blocking these receptors is desirable because the entire inflammation cascade of events is triggered by the early release of TNFa and IL-1. […] Radioisotopes were obtained from New England Nuclear [Dupont, Boston, MA] and substrates and co- factors were obtained from Sigma Chemical Co. [St. Louis, MO]. […] Cell lines were obtained from American Type Culture Collection [Rockville, MD]. In Vivo Tests Anti-inflammatory screen in mice: Male CF male mice weighing 28-32g obtained from Jackson Lab. […] Evaluation of the induced edema was made by injecting 2% carrageenan in 0.9% saline into the plantar region of the foot. The opposite foot injected with 0.9% isotonic saline was used as a base line. […] Salmonella abortus equi [Lot # 69F4003] […] Drugs from 2 to 16 mg/kg, I.P. were administered 2 hr prior and 2 hr post-injection of the LPS and then subsequently for every 24 hr for the length ofthe animals' lives. Deaths were recorded every 12 hr and continued for 96 hr. […] In vitro TNFa andIL-1 Measurements and Cellular Regulation IC-21 mouse macrophages were maintained in RPMI-1640 + 10% FCS + P/S. After the cells had grown to confluency, E. coli LPS at 10 Ixg/ml was added to the medium. Agents were incubated at 12.5 to 100 µM final concentration for 18 hr. The medium (100 btl) was collected for TNFCt determinations. Interleukin-1 [IL-1] release was determined using P388D1 cells which were maintained in RPMI-1640 + 10% FCS + P/S. The L929 bioassay was used to quantitate the TNF and the IL-1 levels. The L929 mouse fibroblasts were grown in DMEM + 10% FCS + P/S to confluency in 96 well plates and incubated with 100 tl ofmedium from […] or P388D cells after 18 hr. The cells were stained with 0.2% crystal violet in 20% MeOH and read at 580 nm using a Molecular Devices scanner (SOFT-max program). High Affinity Binding to Receptors on L929-106 Cells Two laCi of 125I-TNFct (human recombinant, 30 mCi/tg New England Nuclear) or 125I-IL-1 (70-120[.t Ci/lxg,New England Nuclear) was added to confluency L929 cells for 90 min or 5 hr, respectively with 25, 50 and 100 tM of the test compounds 12]. The cells were washed repeatedly with isotonic saline, pH.7.2 and aliquots counted. Prostaglandin cylcooxygenase activity Mouse J774AI macrophages maintained in Dulbecco's modified Eagle's medium + 15% FCS + P/S. Cells (5 x 106) were incubated with agents (5 to 100 ].tM final concentration) and 3H-arachidonic acid (100 Ci/mol) for 60 min at 37C in a CO2 incubator. The reaction was terminated with 2N HCI, the mixture extracted 2 X with ether, and the organic layer evaporated.

[2] = test system: CF1 male mice, LPS Salmonella abortus equi induced death; assay: Protection against septic shock (LPS induced endotoxic shock); assay type: in vivo
[3] = biological target: J774-A1 macrophage elastase; assay: Elastase activity in J774-A1 macrophages; assay type: biochemical, mouse
[4] = biological target: human leukocyte elastase (RPMI 1788); assay: Elastase activity in human leukocytes RPMI 1788; assay type: biochemical
[5] = biological target: IC-21 macrophage elastase; assay: Elastase activity in IC-21 macrophages; assay type: biochemical, mouse
[6] = test system: CF1 male mice, LPS Salmonella abortus equi induced death; assay: Protection against septic shock (LPS induced endotoxic shock); assay type: in vivo; conditions: for Percent Survival at 52 hr: LPS 10 mg/kg, CF1 male mice, N=6
Excerpt: (§1) Few reports in the literature indicate interaction at these receptor sites other than by peptides or antibodies. […] Blocking these receptors is desirable because the entire inflammation cascade of events is triggered by the early release of TNFa and IL-1. […] Radioisotopes were obtained from New England Nuclear [Dupont, Boston, MA] and substrates and co- factors were obtained from Sigma Chemical Co. [St. Louis, MO]. […] Cell lines were obtained from American Type Culture Collection [Rockville, MD]. In Vivo Tests Anti-inflammatory screen in mice: Male CF male mice weighing 28-32g obtained from Jackson Lab. [Bar Harbor, […]] were used to screen agents at 8 or 16 mg/kg intraperitoneal [I.P.] x 2 administered 3 hr and 30 min prior to administering the irritant, according to Winter's protocol. Evaluation of the induced edema was made by injecting 2% carrageenan in 0.9% saline into the plantar region of the foot. The opposite foot injected with 0.9% isotonic saline was used as a base line. […] Salmonella abortus equi [Lot # 69F4003] […] Drugs from 2 to 16 mg/kg, I.P. were administered 2 hr prior and 2 hr post-injection of the LPS and then subsequently for every 24 hr for the length ofthe animals' lives. Deaths were recorded every 12 hr and continued for 96 hr. […] In vitro TNFa andIL-1 Measurements and Cellular Regulation IC-21 mouse macrophages were maintained in RPMI-1640 + 10% FCS + P/S. After the cells had grown to confluency, E. coli LPS at 10 Ixg/ml was added to the medium. Agents were incubated at 12.5 to 100 µM final concentration for 18 hr. The medium (100 btl) was collected for TNFCt determinations. Interleukin-1 [IL-1] release was determined using P388D1 cells which were maintained in RPMI-1640 + 10% FCS + P/S. The L929 bioassay was used to quantitate the TNF and the IL-1 levels. The L929 mouse fibroblasts were grown in DMEM + 10% FCS + P/S to confluency in 96 well plates and incubated with 100 tl ofmedium from […] or P388D cells after 18 hr. The cells were stained with 0.2% crystal violet in 20% MeOH and read at 580 nm using a Molecular Devices scanner (SOFT-max program). High Affinity Binding to Receptors on L929-106 Cells Two laCi of 125I-TNFct (human recombinant, 30 mCi/tg New England Nuclear) or 125I-IL-1 (70-120[.t Ci/lxg,New England Nuclear) was added to confluency L929 cells for 90 min or 5 hr, respectively with 25, 50 and 100 tM of the test compounds 12]. The cells were washed repeatedly with isotonic saline, pH.7.2 and aliquots counted. Prostaglandin cylcooxygenase activity Mouse J774AI macrophages maintained in Dulbecco's modified Eagle's medium + 15% FCS + P/S. Cells (5 x 106) were incubated with agents (5 to 100 ].tM final concentration) and 3H-arachidonic acid (100 Ci/mol) for 60 min at 37C in a CO2 incubator. The reaction was terminated with 2N HCI, the mixture extracted 2 X with ether, and the organic layer evaporated.

[7] = biological target: J774-A1 prostaglandin cyclooxygenase; assay: Prostaglandin cyclooxygenase activity in J774-A1 macrophages; assay type: cell-based, mouse; conditions: 60 min; read-out: IC50 Cyclo-oxygenase J774-A1
Excerpt: as §1

[8] = test system: cytokine synthesis and release; conditions: tissue culture; no reference given; read-out: IC50 to block cytokine synthesis and release; cited from earlier work
[9] = 8 mg/Kg X 2, I.P., CF1 male mice, N=6
[10] = 16 mg/Kg X 2, I.P., CF1 male mice, N=6

## CC(=O)CCCCn1c(=O)c2c(ncn2C)n(C)c1=O [Pentoxifylline, pentoxifylline]
[1]; 50 mg/Kg X 2, CF1 male mice
  Percent of Control (induced edema): 70 + 6% of Control
[2]; 50 mg/Kg/day
  Percent Survival at 52 hr: 67 + 6%
[2]; 50 mg/kg
  protection from LPS induced death: 67%

## O=S(=O)(O)c1cc2c(O)c(c1)Cc1cc(S(=O)(=O)O)cc(c1O)Cc1cc(S(=O)(=O)O)cc(c1O)Cc1cc(S(=O)(=O)O)cc(c1O)Cc1cc(S(=O)(=O)O)cc(c1O)Cc1cc(S(=O)(=O)O)cc(c1O)Cc1cc(S(=O)(=O)O)cc(c1O)Cc1cc(S(=O)(=O)O)cc(c1O)C2 [Compound 1]
[1]; [9]
  Percent of Control (induced edema): 51 + 4% of Control
[1]; [10]
  Percent of Control (induced edema): 56+ 5% of Control
[1]
  reduction of edema: greater than 40%
[3]; 120 min
  IC50: 360 µM
[4]; 60 min
  IC50: 57 µM
[4]; 120 min
  IC50: 56 µM
[5]; 60 min
  IC50: 54 µM
[5]; 120 min
  IC50: 45 µM
[6]; 4 mg/Kg I.P.
  Percent Survival at 52 hr: 50%
[6]; 8 mg/Kg I.P.
  Percent Survival at 52 hr: 50%
[6]; 16 mg/kg
  protection from LPS induced death: 83%
[7]
  IC50: 20.6 µM

## C[C@]12CCC(=O)C=C1CC[C@@H]1[C@@H]2[C@@H](O)C[C@@]2(C)[C@H]1CC[C@]2(O)C(=O)CO [hydrocortisone]
[8]
  IC50: 10 µM

## CCCCC1C(=O)N(c2ccccc2)N(c2ccccc2)C1=O [Phenylbutazone, phenylbutazone, reference compound]
[1]; 50 mg/kg X 2
  reduction in edema: 47%

## O=S(=O)(O)c1cc2c(O)c(c1)Cc1cc(S(=O)(=O)O)cc(c1O)Cc1cc(S(=O)(=O)O)cc(c1O)Cc1cc(S(=O)(=O)O)cc(c1O)Cc1cc(S(=O)(=O)O)cc(c1O)Cc1cc(S(=O)(=O)O)cc(c1O)C2 [Compound 2]
[1]; [9]
  Percent of Control (induced edema): 47 + 4% of Control
[1]; [10]
  Percent of Control (induced edema): 74+ 5% of Control
[3]; 60 min
  IC50: 7.9 µM
[3]; 120 min
  IC50: 240 µM
[4]; 60 min
  IC50: 67 µM
[4]; 120 min
  IC50: 57 µM
[6]; 2 mg/kg I.P.
  Percent Survival at 52 hr: 83%
[6]; 4 mg/Kg I.P.
  Percent Survival at 52 hr: 50%
[6]; 8 mg/Kg I.P.
  Percent Survival at 52 hr: 50%
[6]; 16 mg/Kg I.P.
  Percent Survival at 52 hr: 83%
[6]; 16 mg/kg
  protection from LPS induced death: 83%
[7]
  IC50: 76.2 µM

## COc1c2cc(S(=O)(=O)O)cc1Cc1cc(S(=O)(=O)O)cc(c1OC)Cc1cc(S(=O)(=O)O)cc(c1OC)Cc1cc(S(=O)(=O)O)cc(c1OC)Cc1cc(S(=O)(=O)O)cc(c1OC)Cc1cc(S(=O)(=O)O)cc(c1OC)Cc1cc(S(=O)(=O)O)cc(c1OC)Cc1cc(S(=O)(=O)O)cc(c1OC)C2 [Compound 4]
[1]; [9]
  Percent of Control (induced edema): 56 + 6% of Control
[1]; [10]
  Percent of Control (induced edema): 48+4% of Control
[1]
  reduction of edema: greater than 40%
[3]; 60 min
  IC50: 0.3 µM
[3]; 120 min
  IC50: 270 µM
[4]; 60 min
  IC50: 54 µM
[4]; 120 min
  IC50: 45 µM
[5]; 60 min
  IC50: 57 µM
[5]; 120 min
  IC50: 56 µM
[6]; 4 mg/Kg I.P.
  Percent Survival at 52 hr: 33%
[6]; 8 mg/Kg I.P.
  Percent Survival at 52 hr: 67%
[6]; 16 mg/Kg I.P.
  Percent Survival at 52 hr: 83%
[6]; 16 mg/kg
  protection from LPS induced death: 83%
[7]
  IC50: 59.2 µM

## N=C(N)c1ccc(OCCCCCOc2ccc(C(=N)N)cc2)cc1 [pentamidine]
[8]
  IC50: 1 µM

## O=S(=O)(O)c1cc2c(O)c(c1)Cc1cc(S(=O)(=O)O)cc(c1O)Cc1cc(S(=O)(=O)O)cc(c1O)Cc1cc(S(=O)(=O)O)cc(c1O)C2 [Compound 3]
[1]; [9]
  Percent of Control (induced edema): 58 + 6% of Control
[1]; [10]
  Percent of Control (induced edema): 61 +5% of Control
[3]; 60 min
  IC50: 10 to 30 µM
[3]; 60 min, listed as #3
  IC50: 28.8 µM
[3]; 120 min
  IC50: 280 µM
[4]; 60 min
  IC50: 73 µM
[4]; 120 min
  IC50: 25 µM
[5]; 60 min
  IC50: 73 µM
[5]; 120 min
  IC50: 25 µM
[6]; 2 mg/kg I.P.
  Percent Survival at 52 hr: 67%
[6]; 4 mg/Kg I.P.
  Percent Survival at 52 hr: 50%
[6]; 8 mg/Kg I.P.
  Percent Survival at 52 hr: 100%
[6]; 8 mg/kg
  protection from LPS induced death: 100%
[6]; 16 mg/Kg I.P.
  Percent Survival at 52 hr: 50%
[7]
  IC50: 27.7 µM

## COc1c2cc(S(=O)(=O)[O-])cc1Cc1cc(S(=O)(=O)[O-])cc(c1OC)Cc1cc(S(=O)(=O)[O-])cc(c1OC)Cc1cc(S(=O)(=O)[O-])cc(c1OC)C2.[Na+].[Na+].[Na+].[Na+] [Compound 5]
[1]; [10]
  Percent of Control (induced edema): 61 +5% of Control
[3]; 120 min
  IC50 Elastase J774-A1: Increased
[5]; 120 min
  IC50: 111 µM
[6]; 8 mg/Kg I.P.
  Percent Survival at 52 hr: 33%
[6]; 16 mg/Kg I.P.
  Percent Survival at 52 hr: 67%
[6]; 16 mg/kg
  protection from LPS induced death: 67%
[7]
  IC50: 65.1 µM

## C[C@@H]1C[C@H]2[C@@H]3CCC4=CC(=O)C=C[C@]4(C)[C@@]3(F)[C@@H](O)C[C@]2(C)[C@@]1(O)C(=O)CO [dexamethasone, reference compound]
[6]; dexamethasone dose printed 'at mg/kg' (methods: 1 mg/kg)
  protection from LPS induced death: 67%
